What all share (experiment): NCI-60 cell line screen, 48 h
Experiment [1] concerns HCT-116.
The test system of experiment [2] is HCT-15.
Experiment [3] deals with HOP-62.
The subject of experiment [4] is HOP-92.
For experiment [5], the system named is K562.
For experiment [6], the system named is LOX IMVI.
Experiment [7] concerns M14.
The test system of experiment [8] is MOLT-4.
The test system of experiment [9] is Malme-3M.
Experiment [10] concerns OVCAR-3.
The test system of experiment [11] is OVCAR-5.
Experiment [12] has as its system RPMI-8226.
The subject of experiment [13] is RXF 393.
Experiment [14] concerns SK-MEL-2.
For experiment [15], the system named is SK-OV-3.
Experiment [16] relates to SN12C.
Experiment [17] deals with SNB-19.
Experiment [18] has as its system SNB-75.
The subject of experiment [19] is U-251.
Experiment [20] concerns NCI-H460.

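Five concentrations, 48 hours, 96-well plates. At the GI50, growth is halved.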 Calls of active or inactive are those of the source. Rule as the data show it: active = GI50 up to about 1.1 µM and inactive = higher.

Turning to `COc1ccc(/C=N/Nc2nnc3c(n2)c2ccccc2c2nn(-c4ccccc4Cl)nc23)cc1`, the GI50 in [1] was > 100 µM (inactive); in experiment [2], > 100 µM; in experiment [3], > 100 µM (inactive); in [4], > 100 µM (inactive); in [5], > 100 µM (inactive); in experiment [6] it was > 100 µM (inactive). For the same compound, the GI50 in [7], in experiment [8], in experiment [9], in [10], in experiment [11] and in experiment [12] was > 100 µM (inactive) each time. Also, the GI50 in experiment [13], in experiment [14], in experiment [15], in experiment [16], in experiment [17] and in experiment [18] was > 100 µM (inactive) each time. The GI50 in [19] is > 100 µM (inactive).

As for `O=C(Cn1cc(I)c(C(=O)NCC(O)CO)n1)NCC(O)CO` (configuration not stated), the GI50 is > 100 µM (inactive) in [1]; > 100 µM in experiment [2]; > 100 µM (inactive) in experiment [3]; > 100 µM (inactive) in experiment [4]; > 100 µM (inactive) in experiment [5]; > 100 µM (inactive) in [6]. The GI50 in experiment [7], in experiment [8], in experiment [9], in [20], in experiment [10] and in experiment [12] was > 100 µM (inactive) in each case. In addition, the GI50 in experiment [13], in experiment [14], in experiment [15], in experiment [16], in [17] and in experiment [18] was > 100 µM (inactive) throughout. Moreover, the GI50 in experiment [19] is > 100 µM (inactive).

Take `CCOC(=O)CCSc1nc2ccc(I)cc2c(=O)n1Cc1ccccc1`: the GI50 was 18.8 µM (inactive) in experiment [1]; 18 µM in experiment [2]; 26.5 µM (inactive) in [3]; 13.6 µM (inactive) in experiment [4]; 24 µM (inactive) in [5]; 28.2 µM (inactive) in experiment [6]. Also, the GI50 in experiment [7] is 24.5 µM (inactive); in [9], 17.9 µM (inactive); in [20], 22.6 µM (inactive); in experiment [10], 17.9 µM (inactive); in experiment [11], > 83.8 µM (inactive); in [12], 5.22 µM (inactive). The GI50 in experiment [13] was 26.9 µM (inactive); in experiment [14], 31 µM (inactive); in experiment [15], > 69.8 µM (inactive); in [16], 31.8 µM (inactive); in [17], 38.2 µM (inactive); in experiment [18], 30.3 µM (inactive). For the same compound, in experiment [19], the GI50 was 33 µM (inactive).

Turning to `COc1ccc(C2=Nn3c(C)nnc3S/C2=C\c2ccc(-c3ccc([N+](=O)[O-])cc3)o2)cc1`, the GI50 in experiment [1] was 11 µM (inactive); in [2], 10.9 µM; in experiment [3], 24.4 µM (inactive); in [4], 22.5 µM (inactive); in [5] it was 3.55 µM (inactive); in [6] it was 6.03 µM (inactive). Also, the GI50 in [7] is 17.7 µM (inactive); in [8] it was 3.56 µM (inactive); in experiment [9] it was 30.1 µM (inactive); in experiment [20] it was 14.9 µM (inactive); in [10] it was 10.9 µM (inactive); in experiment [11] it was 18.4 µM (inactive). The GI50 is 3.22 µM (inactive) in [12]; 9.31 µM (inactive) in experiment [13]; 13.3 µM (inactive) in [14]; 64.1 µM (inactive) in experiment [15]; 11 µM (inactive) in experiment [16]; 15.6 µM (inactive) in experiment [17]. In addition, the GI50 in [19] is 9.33 µM (inactive).

For the compound `COC(=O)C(=O)C(C(=O)C(=O)Nc1ccc([N+](=O)[O-])cc1[N+](=O)[O-])c1nc2ccc(Cl)cc2nc1O` (configuration not stated), the GI50 in experiment [1] is > 100 µM (inactive); in [2], > 100 µM; in experiment [4], > 100 µM (inactive); in experiment [5], > 100 µM (inactive); in experiment [6], > 100 µM (inactive); in [7] it was > 100 µM (inactive). In addition, the GI50 is > 100 µM (inactive) in [8]; > 100 µM (inactive) in experiment [20]; > 100 µM (inactive) in experiment [10]; > 100 µM (inactive) in experiment [11]; > 100 µM (inactive) in experiment [12]; 65.3 µM (inactive) in experiment [13]. In addition, the GI50 in experiment [14] was > 100 µM (inactive); in [15] it was > 100 µM (inactive); in [16], > 100 µM (inactive); in experiment [17], > 100 µM (inactive); in experiment [18] it was 16.5 µM (inactive); in [19], > 100 µM (inactive).

Consider `CC(C)=CCN1CC(C)C(=O)Nc2ccccc21` (configuration not stated), for which the GI50 is > 100 µM (inactive) in [1]; > 100 µM in experiment [2]; > 100 µM (inactive) in experiment [3]; 49 µM (inactive) in experiment [4]; > 100 µM (inactive) in experiment [5]; > 100 µM (inactive) in [6]. For the same compound, the GI50 in experiment [7] is > 100 µM (inactive); in experiment [8], > 100 µM (inactive); in experiment [9], > 100 µM (inactive); in [20], 93.3 µM (inactive); in experiment [10], > 100 µM (inactive); in experiment [11], > 100 µM (inactive). In addition, the GI50 in experiment [12], in [13], in experiment [14], in experiment [15], in [16] and in experiment [17] was > 100 µM (inactive) throughout. For the same compound, in experiment [19], the GI50 was > 100 µM (inactive).

In the case of `CC(C)COC(c1ccc2c(c1)OCO2)C(C)Br` (configuration not stated), the GI50 in [1] is 17.2 µM (inactive); in experiment [2] it was 23.3 µM; in [3] it was 24.9 µM (inactive); in experiment [4] it was 21.7 µM (inactive); in experiment [5], 46.7 µM (inactive); in experiment [6], 17.4 µM (inactive). The GI50 in experiment [7] was 21.1 µM (inactive); in experiment [9] it was 17.1 µM (inactive); in [20], 20 µM (inactive); in experiment [10] it was 16.2 µM (inactive); in experiment [11], 19.7 µM (inactive); in experiment [12], 21.6 µM (inactive). For the same compound, the GI50 in experiment [13] is 10.5 µM (inactive); in experiment [14], 21.8 µM (inactive); in experiment [15], 24.1 µM (inactive); in [16] it was 20.7 µM (inactive); in experiment [17], 33.7 µM (inactive); in experiment [18] it was 23.1 µM (inactive). In addition, the GI50 in [19] was 26.5 µM (inactive).

Take `Cc1ccc(-c2nc3n(c2/C=N\N=C(N)N)CCS3)cc1`: the GI50 is 14.8 µM (inactive) in experiment [1]; 17.5 µM in experiment [2]; 15 µM (inactive) in [3]; 19.4 µM (inactive) in experiment [4]; 19.8 µM (inactive) in experiment [5]; 16.7 µM (inactive) in [6]. The GI50 in [8] was 45.8 µM (inactive); in experiment [9], 17.3 µM (inactive); in experiment [20], 18 µM (inactive); in experiment [11], 16.3 µM (inactive); in experiment [12], 32.8 µM (inactive); in [13], 15.8 µM (inactive). In addition, the GI50 in [14] was 12.9 µM (inactive); in experiment [15] it was 15.3 µM (inactive); in [16] it was 16.1 µM (inactive); in experiment [17] it was 15.1 µM (inactive); in experiment [18] it was 10.9 µM (inactive); in [19], 14.9 µM (inactive).

In the case of `COc1cccc(C=O)c1C(=O)c1cc(O)ccc1O`, the GI50 was 20.1 µM (inactive) in experiment [1]; 19.5 µM in experiment [2]; > 100 µM (inactive) in experiment [3]; 17.7 µM (inactive) in [4]; > 10 µM (inactive) in experiment [5]; 37.8 µM (inactive) in experiment [6]. Further, the GI50 in experiment [7] was 17.9 µM (inactive); in experiment [8], 3.13 µM (inactive); in [9], 20.4 µM (inactive); in [20], > 100 µM (inactive); in [10] it was 20.2 µM (inactive); in experiment [11], > 100 µM (inactive). In addition, the GI50 in [13] was 17.9 µM (inactive); in experiment [14] it was > 100 µM (inactive); in experiment [15], > 100 µM (inactive); in experiment [16], > 84.1 µM (inactive); in experiment [17], > 100 µM (inactive); in experiment [18], > 95.3 µM (inactive). Also, in experiment [19], the GI50 was > 100 µM (inactive).

`CCCc1c(O)c(=O)c2c(OC)cc(OC)c3c4c(OC)cc(OC)c5c(=O)c(O)c(CCC)c(c1c23)c54`: the GI50 in experiment [1] is 0.299 µM (active); in experiment [2], 0.746 µM; in [3], 0.543 µM (active); in experiment [4] it was 0.681 µM (active); in [5], 0.195 µM (active); in experiment [6], 0.338 µM (active). Further, the GI50 in [7] was 0.755 µM (active); in [8], 0.0883 µM (active); in experiment [20], 0.301 µM (active); in [10] it was 1.92 µM (inactive); in [11], 2.13 µM (inactive); in experiment [12] it was 0.192 µM (active). The GI50 in experiment [13] was 2.79 µM (inactive); in experiment [14] it was 0.507 µM (active); in experiment [15], 0.342 µM (active); in [16], 1.76 µM (inactive); in experiment [17], 0.351 µM (active); in experiment [18] it was 0.183 µM (active). Further, in [19], the GI50 is 0.415 µM (active).

With `C=C1C(=O)O[C@@H]2C(=O)[C@@H](C)CCC/C(C)=C/CC[C@@]3(C)O[C@@H]3C[C@@H]12`, the GI50 in experiment [1] is 29.4 µM (inactive); in experiment [2] it was 20.2 µM; in [3], > 100 µM (inactive); in experiment [4] it was 13.2 µM (inactive); in experiment [5], 16.4 µM (inactive); in experiment [6], 18.9 µM (inactive). The GI50 in [7] is 54.2 µM (inactive); in experiment [8] it was 28.6 µM (inactive); in [9] it was 23 µM (inactive); in experiment [10] it was 46.3 µM (inactive); in experiment [11], > 100 µM (inactive); in [12] it was 18.6 µM (inactive). Further, the GI50 is 3.75 µM (inactive) in experiment [13]; > 100 µM (inactive) in experiment [14]; > 100 µM (inactive) in experiment [15]; 40.3 µM (inactive) in experiment [16]; > 100 µM (inactive) in [17]; 0.438 µM (active) in [18]. In experiment [19], the GI50 was 98.9 µM (inactive).

Source of the values: ChEMBL document CHEMBL1201862, “PubChem BioAssay data set” (2004).
